Assays:
MASTL kinase = biological target: T1, MASTL kinase (Homo sapiens, UniProt Q96GX5); assay: ADP-Glo luminescence-kinase assay; type: biochemical; conditions: 10 μM ATP, FIG. 2
T1 construct: GST; purchased Thermo Fisher Scientific
T1 sequence (Q96GX5 1-879): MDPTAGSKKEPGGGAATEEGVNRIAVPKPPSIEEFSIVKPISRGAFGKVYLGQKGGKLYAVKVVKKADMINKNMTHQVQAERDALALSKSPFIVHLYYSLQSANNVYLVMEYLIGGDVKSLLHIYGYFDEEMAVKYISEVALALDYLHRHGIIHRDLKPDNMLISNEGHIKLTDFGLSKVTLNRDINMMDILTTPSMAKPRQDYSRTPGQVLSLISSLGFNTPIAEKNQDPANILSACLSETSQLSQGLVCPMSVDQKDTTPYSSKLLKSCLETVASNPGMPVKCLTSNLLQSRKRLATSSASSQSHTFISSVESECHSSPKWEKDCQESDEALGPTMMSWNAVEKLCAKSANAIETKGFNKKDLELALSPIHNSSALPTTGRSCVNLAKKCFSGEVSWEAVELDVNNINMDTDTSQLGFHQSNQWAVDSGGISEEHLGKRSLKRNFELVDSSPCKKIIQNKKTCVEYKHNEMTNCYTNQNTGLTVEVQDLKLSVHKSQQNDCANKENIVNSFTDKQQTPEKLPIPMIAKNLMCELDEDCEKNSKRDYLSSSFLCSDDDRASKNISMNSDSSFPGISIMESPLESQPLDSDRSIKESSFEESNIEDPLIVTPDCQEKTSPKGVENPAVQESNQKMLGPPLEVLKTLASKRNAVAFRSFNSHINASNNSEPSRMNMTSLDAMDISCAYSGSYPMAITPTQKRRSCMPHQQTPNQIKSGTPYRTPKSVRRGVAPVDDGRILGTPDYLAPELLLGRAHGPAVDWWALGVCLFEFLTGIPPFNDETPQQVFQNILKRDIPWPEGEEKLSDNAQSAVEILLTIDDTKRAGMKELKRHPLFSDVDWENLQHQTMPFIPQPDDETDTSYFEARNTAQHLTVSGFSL
Description: A protein kinase analysis was performed using the ADP-Glo™ kinase assay kit according to the standard protocol provided by Promega. […] A solution of a serial 2-fold dilution of the MASTL kinase inhibitor (GKI-1, MKI-1 or AT13148) was prepared and MASTL kinase […], ENSA 250 ng and 10 μM ATP was mixed in a kinase reaction buffer consisting of 100 mM Tris-HCl (pH 7.5), 30 mM MgCl2, 2 mM DTT, 1 mM EDTA and 10 μM ultra-pure ATP (Promega). Thereafter, the mixture was reacted at 30° C. for 30 minutes in an E-tube, and a kinase detection reagent was added thereto, followed by reacting for 30 minutes to detect the converted ATP. Then, the reacted product was transferred to a 384-well white plate, and […] was read using a SpectraMax i3× Multi-Mode Microplate Reader (Molecular Devices), and GKI-1, N-(4-chlorophenyl)-3-(1H-pyrazol-4-yl)aniline and AT13148 were used as positive controls. The effect of inhibiting kinase activity of GKI-1 and MKI-1 and its IC50 confirmed through the reading result were shown in FIG. 2. In addition, enzyme activity assay was performed under the same conditions except for the treatment of each concentration of MKI-1 (0, 6.25, 12.5, 25, 50 and 100 μM) through western blot, and it was shown in FIG. 3.

MCF7 cells = assay: WST-8 cell viability assay, breast cancer cell line MCF7; type: cell-based, human; conditions: for cell viability, MCF7: 3.70, 11.11, 33.33 and 100 μM
Description: In addition, the cell line in this experiment was distributed from ATCC (American Type Culture Collection; Manassas, VA). Human-derived tumor cell lines, breast cancer cell lines MCF7 and T47D was cultured in DMEM medium containing 10% fetal bovine serum (FBS; HyClone, South Logan, UT) and 1% penicillin/streptomycin (Corning, NY, USA) at 37° C. and 5% CO2, and the BT549 breast cancer cell line was cultured in RPMI 1640 (Welgene, Daegu, Korea) as a medium used under the same conditions. Human-derived normal cell line MCF10A was cultured in DMEM/F12 (Invitrogen) medium containing 5% horse serum (Invitrogen), 1% penicillin/streptomycin, 20 ng/ml EGF (Peprotech, London, UK), […] (Sigma-Aldrich, MO, USA), 100 ng/ml cholera toxin (Cholera Toxin, Sigma-Aldrich) and 10 μg Insulin (Sigma-Aldrich) at 37° C. and 5% CO2.
Briefly, MCF7 and MCF10A cells were seeded into 96-well plates, incubated for 24 hours, and then was treated with 42 inhibitor candidates. Among the compounds, the multi-AGC kinase inhibitor AT13148 was used as a positive control. Thereafter, the absorbance was measured at 450 nm using a Versamax microplate reader (Molecular Devices, CA, USA), and the results of the experiment were shown in FIG. 1A.
In order to confirm whether the selected MKI-1 can kill only cancer cells, an experiment was performed by treating with MKI-1 and measuring whether the cell viability of breast cancer cell lines and normal cell lines was changed. WST-8 analysis (Cyto X™ cell viability assay kit, LPS solution, Daejeon, Korea) was performed according to the manufacturer's protocol. Cancer cells MCF7 and BT549 and normal cell line MCF10A cells were inoculated into a 96-well plate, cultured for 24 hours, and then treated with MASTL kinase inhibitors at various concentrations (3.70, 11.11, 33.33 and 100 μM). Thereafter, the absorbance was measured at 450 nm using a Versamax micro plate reader (Molecular Devices, CA, USA), and the results were shown in FIG. 6.

[1] = system: MASTL kinase (phosphorylated ENSA); assay: Immunofluorescence staining of phosphorylated ENSA (Ser67)/ARPP19 (ser62) in MCF7; type: cell-based, human; conditions: with Colcemid 16 to 18 hours, FIG. 4
Description: After culturing 2.5×10^4 MCF7 cells in a 6-well plate for 24 hours, 80 ng/mL of a MASTL kinase inhibitor and a cell cycle control agent Colcemid (KaryoMAX™ Colcemid™ Solution in PBS; Gibco) were treated for 16 to 18 hours. After washing with phosphate buffered saline for fixation and permeabilization of cells, 4% paraformaldehyde and 0.2% Triton-X were added and reacted for 10 minutes, respectively. After 1 hour pretreatment with 5% fetal bovine serum, 1:100 diluted antibody against phosphorylated ENSA (Ser67)/ARPP19 (ser62) was treated for 16 hours, and then it was washed with 0.1% Triton X-100/phosphate buffered saline solution (Tritonx-100/PBS) 3 times. Alexa488-conjugated secondary antibody (AP132JA4, Invitrogen) was reacted for 2 hours at room temperature to label, and phosphorylated ENSA was photographed and analyzed using IN Cell Analyzer 6000 (GE Healthcare Life Science).

Row | Structure (SMILES) | IC50 (MASTL kinase) | cell viability, MCF7 (MCF7 cells; FIG. 6) | phosphorylation of ENSA in MCF7 relative to DMSO [1] | survival rate of cancer cells, MCF7 (MCF7 cells; 33.33 μM or more, FIG. 6) | growth of the treated cancer cell line (MCF7) (MCF7 cells; screen of 42 single compounds, FIG. 1A)
1 | Clc1ccc(Nc2cccc(-c3cn[nH]c3)c2)cc1 [GKI-1, N-(4-chlorophenyl)-3-(1H-pyrazol-4-yl)aniline, reference compound] | 12 µM | decreases cell viability in a dose-dependent manner |  |  | 
2 | O=C(Nc1nc2ccccc2[nH]1)c1cccc(-n2cccc2)c1 [MKI-1, N-1H-benzimidazol-2-yl-3-(1H-pyrrol-1-yl) benzamide] | 11.6 µM | decreases cell viability in a dose-dependent manner | close to about half of that of DMSO | significantly reduced | significantly inhibited

Source: patent publication US12029730B2, “Pharmaceutical composition for preventing or treating cancer, containing N-1H-benzimidazol-2-yl-3-(1H-pyrrole-1-yl)benzamide as active ingredient” (KOREA INSTITUTE OF RADIOLOGICAL & MEDICAL SCIENCES, priority 2018, dated 2024)
